Reference: a melting point compilation (Tetko et al.; mined from patent text by program, amines drawn as free bases though some values may be those of a salt)

| SMILES | melting point [°C] |
| --- | --- |
| CC(C)Cn1c(=O)n(C)c(=O)c2cc(C(=O)c3cccc4ccccc34)sc21 | 150 |
| O=c1c2ccc(Cl)cc2[nH]c2c(O)nn(-c3ccc(O)cc3)c(=O)c12 | 316 to 318 |
| Cc1cc2cc(CN3CCCCCC3)cnc2cc1NC(=O)c1ccc(-c2cc3ccccc3o2)cc1 | 207 |
| CCC1(C)Cc2cc(O)c(Cl)c(Cl)c2C1=O (stereo not drawn) | 215 to 217 |
| O=C(NNS(=O)(=O)c1ccccc1)c1cccc2cccnc12 | 173 to 175 |
| CCSc1cc2c(cc1OC)CCn1c-2cc2c1C(=O)N(C(C)(C)C)CCCC2 | 124 to 125 |
| CC(C)(F)[C@H]1C(=O)N[C@@H]1CC(=O)OCc1ccccc1 (racemic) | 112 to 116 |
| FC(F)(F)c1cc(Cl)c(-n2cc(I)c(C(F)(F)F)n2)c(Cl)c1 | 109 to 112 |
| O=c1oc2cc(O)ccc2c2c1CCCC2 | 200 to 202 |
| Cn1nc(-c2ccc(Cl)c(Cl)c2)c2ccccc2c1=O | 179 to 181 |
| O=C1COC(c2cccc(Cl)c2)c2cc(C3(c4ccc(Cl)cc4)OCCO3)ccc2N1 (stereo not drawn) | 205 |
| CCCn1c(=O)c2[nH]c(-c3cc(C)n(CC(=O)Nc4ccc(C)c(C)c4)n3)nc2n(CCC)c1=O | 261 to 265 |
| Cc1ccc(-c2ccc3c(c2)C=C(C(=O)Nc2ccc(CN4CCC(O)CC4)cc2)CC3)cc1 | 223 to 224 |
| C=CCOC(=O)Nc1ccc(N2CCN(N3C=NN(CC(C)(O)c4ccc(Cl)cc4Cl)C3)CC2)cc1 (stereo not drawn) | 177 to 179 |
| COC(=O)c1cc(Br)c(Br)o1 | 56 to 57 |
| COCCN1CCc2ccc(Nc3ncc(Cl)c(Nc4ccc(N5CCOCC5)cc4OCCC#N)n3)cc2CC1 | 91 to 96 |
| COc1cncc(-c2cccc(OC3SCC(OC(C)=O)C(OC(C)=O)C3OC(C)=O)c2)c1 (stereo not drawn) | 167 |
| Cc1nc(N2CCOCC2)sc1-c1ccnc(Nc2ccc(N3CCOCC3)cc2)n1 | 229 to 231 |
| COC(=O)c1cc(Br)cc(I)c1 | 55 to 57 |
| CCOC(=O)CC(c1ccccc1)(c1ccccc1)c1ncc[nH]1 | 75 |
| CC1Cc2cc(S(=O)(=O)N3CCN(c4cccc(Cl)c4)CC3)ccc2N1C(=O)CCC(=O)O (stereo not drawn) | 210 |
| C1=C(c2cccnc2)CCC(N2CCN(c3ccccn3)CC2)C1 (stereo not drawn) | 146 to 148 |
| CC#CCOCCCCCCCCCCCCOC(=O)C1CC1 | 38 to 40 |
| CCN1C(=O)C(NC(=O)C(F)(F)F)CCc2c1ccc(Nc1ncc(Cl)c(N[C@H]3[C@@H](C(N)=O)[C@@H]4C=C[C@H]3C4)n1)c2OC (stereo partly drawn) | 167 to 176 |

| SMILES | melting point [°C] |
| --- | --- |
| CCCC1(C)SC(=NOC(=O)NC)N=C1C (stereo not drawn) | 66 to 69 |
| CCc1ccc2oc(C(=O)Nc3ccc(-c4ccc(S(=O)(=O)NC(C(=O)OC)C(C)C)cc4)cc3)c(C)c2c1O (stereo not drawn) | 75 to 80 |
| CCOc1c(OC)cc(C)c(C(=O)c2c(OC)ccc(Cl)c2C)c1OC | 131 to 132 |
| CCCc1nc(CC)c(C=O)n1Cc1ccc(-c2ccccc2-c2c(O)c(=O)c2=O)cc1 | 241 to 245 |
| Cc1ccc(-c2cc(NCc3cccc(CNc4cc(-c5ccc(C)cc5)[nH]n4)n3)n[nH]2)cc1 | 154 |
| COC(=O)c1cc(F)c(O)nc1O | 208 to 213 |
| CNC(=O)C(=O)CCCCCCc1csc(-c2ccc(Cl)cc2)n1 | 77 to 81 |
| O=C1c2ccccc2C(=O)c2sc(-c3cccc(F)c3)nc21 | > 260 |
| CC(=O)OC1CSC(Oc2ccc(-c3cccnc3)cc2)C(OC(C)=O)C1OC(C)=O (stereo not drawn) | 150 |
| O=C(O)c1cc2ccccc2cc1NC(=O)C(CS)Cc1ccccc1 (stereo not drawn) | 180 to 182 |
| Cc1cc(C)c(S(=O)(=O)NC(CSc2ccccc2)C(F)(F)F)c(C)c1 (stereo not drawn) | 76 to 78 |
| O=C(O)/C=C/C=C/C=C/C1=Cc2cc(C(F)(F)F)ccc2OC1 | 208 to 210 |
| O=C1CCC(CCN2CC=C(c3ccccc3)CC2)CC1 | 94 to 96 |
| Cc1c(Br)cc2c(c1C)OCC2c1ccc(C(C)C)cc1 (stereo not drawn) | 114 to 115 |
| O=C1c2ccccc2-c2c1c(Cl)nc1cc(O)ccc21 | > 300 |
| CCOP(=O)(CN(Cc1ccncc1)C(=O)Cc1cc(C(C)(C)C)c(O)c(C(C)(C)C)c1)OCC | 160 to 162 |
| COC1CCCCC1n1nnc2c([N+](=O)[O-])cccc21 (stereo not drawn) | 134 to 136 |
| CN(CCOc1ccc([N+](=O)[O-])cc1F)c1ccccn1 | 95 to 96 |
| COc1ccc(C(O)COc2ccc(C(=O)O)c(O)c2)cc1C12CC3CC(CC(C3)C1)C2 (stereo not drawn) | 178 to 179 |
| C=CCC(C#N)(c1ccc(F)cc1)c1ccccc1F (stereo not drawn) | 215 to 219 |
| COc1cc2c(c3c1OC(C)(C)C3)C(c1cccc(Nc3cccnc3)c1)=NC(C)(C)C2 | 204 to 205 |
| O=C(Oc1ccccc1)n1c(C(F)(F)F)nc2c([N+](=O)[O-])cc(C(F)(F)F)cc21 | 100 to 103 |
| OC(c1ccccc1)(c1ncc[nH]1)c1ccccc1Cl (stereo not drawn) | 186 to 188 |
| CCCCN1CCC(CNC(=O)c2ccc(N)n3cc(C(C)C)nc23)CC1 | 138 |
